Drawing on patent publication US20230114728A1 (Venatorx Pharmaceuticals, Inc., priority 2019, published 2023), this text covers MIC for 5 compounds.

Converted amounts (≈) assume the structure as drawn.

Holding throughout (format): cell-based
In one assay the test system is N. gonorrhoeae FA1090. The assay can be described thus: Liquid broth MIC in Fastidious broth. The following applies: Neisseria gonorrhoeae; N. gonorrhoeae FA1090; Fastidious broth; read-out: Minimum Inhibitory Concentration, FA1090. A digest of the protocol: (§1)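 Colonies were swabbed from chocolate agar after 24 h growth and standardised by optical density at 600 nm. Compounds were serially diluted twofold in Fastidious broth, and bacteria added to give 5×10^5 CFU/mL. After about 24 h at 36 °C in 5% CO2, the lowest concentration allowing under 10% growth was taken as MIC.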

For a further assay, the system named is N. gonorrhoeae WHO L. As to the kind of experiment: Liquid broth MIC in Fastidious broth. The following applies: Neisseria gonorrhoeae; N. gonorrhoeae WHO L; Fastidious broth; read-out: Minimum Inhibitory Concentration, WHO L. The procedure, abridged:
as §1

The test system of assay [1] is N. gonorrhoeae ATCC 49226. As to the kind of experiment: Liquid broth MIC in Fastidious broth. The following applies: Neisseria gonorrhoeae, ATCC49226; N. gonorrhoeae ATCC 49226; Fastidious broth; read-out: Minimum Inhibitory Concentration, ATCC 49226. A digest of the protocol:
as §1

The test system of another assay is N. gonorrhoeae H041. The assay can be described thus: Liquid broth MIC in Fastidious broth. The following applies: Neisseria gonorrhoeae, H041, read-out: Minimum Inhibitory Concentration, H041. The procedure, abridged:
(§2)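 Mosaic PBP2 producers; colonies from 24 h chocolate agar, saline suspension, OD600. Fastidious broth, 2-fold dilutions, 5×10^5 CFU/mL. ~24 h, 36 °C, 5% CO2; visual MIC, <10% growth cutoff.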

The test system of another assay is N. gonorrhoeae WHO Z. As to the kind of experiment: Liquid broth MIC in Fastidious broth. As to conditions: Neisseria gonorrhoeae, read-out: Minimum Inhibitory Concentration, WHO Z. The procedure, abridged:
as §2

Another assay has as its system N. gonorrhoeae WHO Q. As to the kind of experiment: Liquid broth MIC in Fastidious broth. As to conditions: Neisseria gonorrhoeae, read-out: Minimum Inhibitory Concentration, WHO Q. The procedure, abridged:
as §2

Another assay has as its system N. gonorrhoeae WHO G. The assay can be described thus: Liquid broth MIC in Fastidious broth. As to conditions: Neisseria gonorrhoeae; N. gonorrhoeae WHO G; Fastidious broth; read-out: Minimum Inhibitory Concentration, WHO G. A digest of the protocol: as §1
The test system of another assay is N. gonorrhoeae WHO K. As to the kind of experiment: Liquid broth MIC in Fastidious broth. As to conditions: Neisseria gonorrhoeae, read-out: Minimum Inhibitory Concentration, WHO K. The procedure, abridged:
as §2

In assay [2] the test system is K. pneumoniae SI-117 producing VIM-1. As to the kind of experiment: Broth microdilution MIC in CAMHB. As to conditions: Klebsiella pneumoniae, read-out: Minimum Inhibitory Concentration, K. pneumoniae SI-117. A digest of the protocol:
(§3)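 Colonies from cation-adjusted Mueller Hinton agar are grown in broth (3-5 h, 37° C), adjusted by OD600, and added at 2-8×10^5 CFU/mL to 2-fold compound dilutions. After 16-20 h at 37° C, the lowest concentration without growth is taken as MIC.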
(In broth dilution the organism is exposed to a series of concentrations in liquid medium.)

Another assay relates to A. baumannii ATCC 19606. As to the kind of experiment: Broth microdilution MIC in CAMHB. As to conditions: Acinetobacter baumannii, ATCC19606; MHB; read-out: Minimum Inhibitory Concentration, A. baumannii ATCC 19606. The procedure, abridged: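 MIC, read by eye, is the lowest compound concentration giving no bacterial growth after 16-20 h at 37° C. Test compounds are serially diluted 2-fold in CAMHB and seeded with 2-8×10^5 CFU/mL of bacteria taken from a 3-5 h shaking culture, following CLSI methods.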

In another assay the test system is E. coli 901C. As to the kind of experiment: Broth microdilution MIC in CAMHB. The following applies: Escherichia coli; E. coli 901C (hyper-permeable); MHB; read-out: Minimum Inhibitory Concentration, E. coli 901C. The procedure, abridged: as §3
In the next assay the test system is P. aeruginosa ATCC 35151. The assay can be described thus: Broth microdilution MIC in CAMHB. The following applies: Pseudomonas aeruginosa, ATCC35151; MHB; hyper-permeable strain; read-out: Minimum Inhibitory Concentration, P. aeruginosa ATCC 35151. A digest of the protocol:
as §3

In the case of `CCN1CCN(C(=O)N[C@H](C(=O)N[C@H]2Cc3cccc(C(=O)O)c3OB2O)c2ccc(C(=O)O)c(F)c2Cl)C(=O)C1=O` (single isomer, unassigned) [Example 202], the MIC in the assay on N. gonorrhoeae FA1090 is 4 to 8 µg/mL (≈ 6.61 to 13.2 µM); in the assay with N. gonorrhoeae WHO L, over 64 µg/mL; in assay [1] it was 16 to 32 µg/mL (≈ 26.5 to 52.9 µM); in the assay with N. gonorrhoeae H041, over 64 µg/mL; in the assay with N. gonorrhoeae WHO Z it was 16 to 32 µg/mL (≈ 26.5 to 52.9 µM); with N. gonorrhoeae WHO Q it was over 64 µg/mL. Moreover, the MIC in the assay on N. gonorrhoeae WHO G was 16 to 32 µg/mL (≈ 26.5 to 52.9 µM); in the assay on N. gonorrhoeae WHO K it was over 64 µg/mL; in assay [2], over 128 µg/mL; in the assay with A. baumannii ATCC 19606 it was over 128 µg/mL; with E. coli 901C it was 0.5 to 1 µg/mL (≈ 0.827 to 1.65 µM); in the assay with P. aeruginosa ATCC 35151, 2 to 4 µg/mL (≈ 3.31 to 6.61 µM).

For the compound `CCN1CCN(C(=O)N[C@@H](C(=O)N[C@H]2Cc3cccc(C(=O)O)c3OB2O)c2ccc(C(=O)O)c(F)c2Cl)C(=O)C1=O` (single isomer, unassigned) [Example 203], the MIC is 0.25 to 0.5 µg/mL (≈ 0.413 to 0.827 µM) in the assay on N. gonorrhoeae FA1090; over 64 µg/mL in the assay on N. gonorrhoeae WHO L; 4 to 8 µg/mL (≈ 6.61 to 13.2 µM) in assay [1]; 16 to 32 µg/mL (≈ 26.5 to 52.9 µM) in the assay on N. gonorrhoeae H041; 4 to 8 µg/mL (≈ 6.61 to 13.2 µM) with N. gonorrhoeae WHO Z; 4 to 8 µg/mL (≈ 6.61 to 13.2 µM) in the assay with N. gonorrhoeae WHO Q. The MIC in the assay on N. gonorrhoeae WHO G is 4 to 8 µg/mL (≈ 6.61 to 13.2 µM); with N. gonorrhoeae WHO K, 16 to 32 µg/mL (≈ 26.5 to 52.9 µM); in assay [2], over 128 µg/mL; in the assay on A. baumannii ATCC 19606, over 128 µg/mL; with E. coli 901C, under 0.25 µg/mL; in the assay on P. aeruginosa ATCC 35151, 0.5 to 1 µg/mL (≈ 0.827 to 1.65 µM).

With `NCCN1CCN(C(=O)N[C@H](C(=O)N[C@H]2Cc3cccc(C(=O)O)c3OB2O)c2c(F)cccc2F)C(=O)C1=O` (single isomer, unassigned) [Example 204], the MIC with N. gonorrhoeae FA1090 was 16 to 32 µg/mL (≈ 28.6 to 57.2 µM); with N. gonorrhoeae WHO L, over 64 µg/mL; in assay [1], over 64 µg/mL; in the assay with N. gonorrhoeae H041, over 64 µg/mL; with N. gonorrhoeae WHO Z, over 64 µg/mL; in the assay on N. gonorrhoeae WHO Q it was over 64 µg/mL. In addition, the MIC in the assay with N. gonorrhoeae WHO G was over 64 µg/mL; in the assay on N. gonorrhoeae WHO K it was over 64 µg/mL; in assay [2], over 128 µg/mL; in the assay with A. baumannii ATCC 19606, over 128 µg/mL; in the assay on E. coli 901C it was 8 to 16 µg/mL (≈ 14.3 to 28.6 µM); with P. aeruginosa ATCC 35151, 32 to 64 µg/mL (≈ 57.2 to 114 µM).

On to `NCCN1CCN(C(=O)N[C@@H](C(=O)N[C@H]2Cc3cccc(C(=O)O)c3OB2O)c2c(F)cccc2Cl)C(=O)C1=O` (single isomer, unassigned) [Example 205], for which the MIC in the assay on N. gonorrhoeae FA1090 is 16 to 32 µg/mL (≈ 27.8 to 55.6 µM); in the assay with N. gonorrhoeae WHO L, over 64 µg/mL; in assay [1], over 64 µg/mL; with N. gonorrhoeae H041, over 64 µg/mL; with N. gonorrhoeae WHO Z, over 64 µg/mL; in the assay with N. gonorrhoeae WHO Q it was over 64 µg/mL. The MIC in the assay on N. gonorrhoeae WHO G is over 64 µg/mL; in the assay on N. gonorrhoeae WHO K, over 64 µg/mL; in assay [2], over 128 µg/mL; in the assay on A. baumannii ATCC 19606, over 128 µg/mL; with E. coli 901C, 8 to 16 µg/mL (≈ 13.9 to 27.8 µM); in the assay on P. aeruginosa ATCC 35151, 8 to 16 µg/mL (≈ 13.9 to 27.8 µM).

For the compound `NCCN1CCN(C(=O)N[C@H](C(=O)N[C@H]2Cc3cccc(C(=O)O)c3OB2O)c2c(F)cccc2Cl)C(=O)C1=O` (single isomer, unassigned) [Example 206], the MIC (in the assay with N. gonorrhoeae FA1090; with N. gonorrhoeae WHO L; in [1]; in the assay with N. gonorrhoeae H041; in the assay on N. gonorrhoeae WHO Z; in the assay with N. gonorrhoeae WHO Q) was over 64 µg/mL throughout. For the same compound, the MIC is over 64 µg/mL in the assay with N. gonorrhoeae WHO G; over 64 µg/mL in the assay on N. gonorrhoeae WHO K; over 128 µg/mL in assay [2]; over 128 µg/mL in the assay on A. baumannii ATCC 19606; 32 to 64 µg/mL (≈ 55.6 to 111 µM) in the assay with E. coli 901C; 32 to 64 µg/mL (≈ 55.6 to 111 µM) in the assay with P. aeruginosa ATCC 35151.
